One block for each molecule: values may come before it. Active and inactive are the calls of the source. No cut-off for these calls is given here.
Legend:
Egl nine homolog 1 [1] = target: T1, Egl nine homolog 1 (Homo sapiens, UniProt Q9GZT9)
Target sequence in this assay (Q9GZT9 whole entry): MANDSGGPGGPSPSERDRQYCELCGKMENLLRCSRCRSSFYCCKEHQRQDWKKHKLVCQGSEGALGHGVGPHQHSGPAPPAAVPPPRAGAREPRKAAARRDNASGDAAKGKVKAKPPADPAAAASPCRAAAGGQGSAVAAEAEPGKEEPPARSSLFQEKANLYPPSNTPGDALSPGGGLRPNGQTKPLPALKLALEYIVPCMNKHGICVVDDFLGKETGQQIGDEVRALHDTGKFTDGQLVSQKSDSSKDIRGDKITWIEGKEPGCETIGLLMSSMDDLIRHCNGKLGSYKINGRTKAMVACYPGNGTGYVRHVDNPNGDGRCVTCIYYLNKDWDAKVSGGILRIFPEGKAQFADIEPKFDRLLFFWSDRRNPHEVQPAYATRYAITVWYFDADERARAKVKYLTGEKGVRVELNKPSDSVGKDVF

[2] = target: Hypoxia-inducible factor 1-alpha inhibitor (Homo sapiens, UniProt Q9NWT6)
[3] = target: T2, Amine oxidase [flavin-containing] B (Homo sapiens, UniProt P27338)
T2 sequence (P27338 whole entry): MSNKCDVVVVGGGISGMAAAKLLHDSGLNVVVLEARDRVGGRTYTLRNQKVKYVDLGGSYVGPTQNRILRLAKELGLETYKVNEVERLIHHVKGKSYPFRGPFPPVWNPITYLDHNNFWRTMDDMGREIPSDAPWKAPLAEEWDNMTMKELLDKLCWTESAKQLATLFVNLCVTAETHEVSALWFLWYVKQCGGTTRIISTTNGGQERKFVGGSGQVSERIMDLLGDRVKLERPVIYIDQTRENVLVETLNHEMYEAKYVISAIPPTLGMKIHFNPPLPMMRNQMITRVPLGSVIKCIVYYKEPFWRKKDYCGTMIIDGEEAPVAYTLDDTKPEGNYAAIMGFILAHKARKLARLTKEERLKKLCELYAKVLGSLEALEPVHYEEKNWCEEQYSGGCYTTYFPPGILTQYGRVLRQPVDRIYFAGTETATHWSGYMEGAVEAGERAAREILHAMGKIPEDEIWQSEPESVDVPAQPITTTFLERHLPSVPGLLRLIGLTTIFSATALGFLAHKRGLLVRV

[4] = target: Lysine-specific demethylase 6B (Homo sapiens, UniProt O15054); assay: Inhibition of KDM6B
[5] = target: Histone lysine demethylase PHF8 (Homo sapiens, UniProt Q9UPP1); assay: Inhibition of KDM7B
Prolyl hydroxylase EGLN3 = Prolyl hydroxylase EGLN3 (Homo sapiens, UniProt Q9H6Z9); assay: Inhibition of PHD3
[6] = target: T3, Lysine-specific demethylase 4A (Homo sapiens, UniProt O75164)
T3 sequence (O75164 whole entry): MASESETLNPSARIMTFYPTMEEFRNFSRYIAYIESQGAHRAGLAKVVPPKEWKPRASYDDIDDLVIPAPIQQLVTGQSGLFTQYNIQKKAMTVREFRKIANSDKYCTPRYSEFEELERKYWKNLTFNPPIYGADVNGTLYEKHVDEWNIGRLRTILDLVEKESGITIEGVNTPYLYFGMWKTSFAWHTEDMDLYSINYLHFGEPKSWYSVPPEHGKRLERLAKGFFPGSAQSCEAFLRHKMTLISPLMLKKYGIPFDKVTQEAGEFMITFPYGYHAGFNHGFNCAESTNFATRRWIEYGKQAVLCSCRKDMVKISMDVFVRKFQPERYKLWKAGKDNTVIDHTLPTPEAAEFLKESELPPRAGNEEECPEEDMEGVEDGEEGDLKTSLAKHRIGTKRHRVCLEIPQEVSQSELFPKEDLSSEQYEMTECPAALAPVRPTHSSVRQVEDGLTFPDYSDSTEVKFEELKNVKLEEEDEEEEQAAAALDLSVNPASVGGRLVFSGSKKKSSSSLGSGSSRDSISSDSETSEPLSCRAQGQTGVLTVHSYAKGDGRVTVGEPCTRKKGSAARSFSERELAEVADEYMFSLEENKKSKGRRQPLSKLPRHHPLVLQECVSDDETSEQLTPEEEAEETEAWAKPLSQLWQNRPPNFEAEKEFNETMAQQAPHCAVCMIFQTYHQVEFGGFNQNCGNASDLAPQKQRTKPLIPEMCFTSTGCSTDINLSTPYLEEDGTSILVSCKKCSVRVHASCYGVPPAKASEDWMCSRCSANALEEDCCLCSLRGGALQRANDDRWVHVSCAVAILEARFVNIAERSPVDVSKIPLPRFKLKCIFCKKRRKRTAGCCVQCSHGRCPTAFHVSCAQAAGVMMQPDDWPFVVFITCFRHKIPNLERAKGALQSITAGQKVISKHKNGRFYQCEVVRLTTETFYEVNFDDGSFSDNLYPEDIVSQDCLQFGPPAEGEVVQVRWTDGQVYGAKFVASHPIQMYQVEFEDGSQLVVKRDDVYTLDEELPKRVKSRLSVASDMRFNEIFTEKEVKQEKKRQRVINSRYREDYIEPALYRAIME

[7] = target: T4, Lysine-specific demethylase 4C (Homo sapiens, UniProt Q9H3R0)
T4 sequence (Q9H3R0 whole entry): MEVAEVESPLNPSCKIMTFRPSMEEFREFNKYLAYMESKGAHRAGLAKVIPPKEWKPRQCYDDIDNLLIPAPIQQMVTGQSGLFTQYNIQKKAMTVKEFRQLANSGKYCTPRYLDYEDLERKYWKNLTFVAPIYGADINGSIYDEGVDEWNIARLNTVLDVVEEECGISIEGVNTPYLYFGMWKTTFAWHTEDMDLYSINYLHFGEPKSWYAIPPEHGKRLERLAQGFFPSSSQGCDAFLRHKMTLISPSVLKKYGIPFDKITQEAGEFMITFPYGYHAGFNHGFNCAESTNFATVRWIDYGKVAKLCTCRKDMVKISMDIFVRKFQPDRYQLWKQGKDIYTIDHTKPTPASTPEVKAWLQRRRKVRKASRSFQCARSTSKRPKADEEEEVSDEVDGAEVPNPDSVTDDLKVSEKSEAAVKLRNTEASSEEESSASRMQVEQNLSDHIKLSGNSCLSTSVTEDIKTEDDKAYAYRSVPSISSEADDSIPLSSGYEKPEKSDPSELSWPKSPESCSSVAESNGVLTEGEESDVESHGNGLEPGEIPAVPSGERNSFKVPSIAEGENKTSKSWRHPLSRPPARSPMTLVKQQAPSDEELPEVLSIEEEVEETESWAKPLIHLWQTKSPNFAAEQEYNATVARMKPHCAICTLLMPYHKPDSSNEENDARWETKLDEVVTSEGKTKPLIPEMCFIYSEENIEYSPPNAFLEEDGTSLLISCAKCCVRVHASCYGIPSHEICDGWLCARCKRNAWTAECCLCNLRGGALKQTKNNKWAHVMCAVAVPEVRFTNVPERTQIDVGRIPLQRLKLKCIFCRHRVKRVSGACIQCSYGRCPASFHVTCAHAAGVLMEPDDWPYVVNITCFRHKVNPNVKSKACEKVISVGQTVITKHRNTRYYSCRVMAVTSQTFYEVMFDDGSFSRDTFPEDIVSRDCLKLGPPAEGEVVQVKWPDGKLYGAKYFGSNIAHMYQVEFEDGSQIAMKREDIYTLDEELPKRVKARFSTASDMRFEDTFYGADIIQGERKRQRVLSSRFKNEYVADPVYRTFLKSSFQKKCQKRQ

Prolyl hydroxylase EGLN2 = Prolyl hydroxylase EGLN2 (Homo sapiens, UniProt Q96KS0)
[8] = target: T5, Lysine-specific demethylase 2A (Homo sapiens, UniProt Q9Y2K7)
T5 sequence (Q9Y2K7 whole entry): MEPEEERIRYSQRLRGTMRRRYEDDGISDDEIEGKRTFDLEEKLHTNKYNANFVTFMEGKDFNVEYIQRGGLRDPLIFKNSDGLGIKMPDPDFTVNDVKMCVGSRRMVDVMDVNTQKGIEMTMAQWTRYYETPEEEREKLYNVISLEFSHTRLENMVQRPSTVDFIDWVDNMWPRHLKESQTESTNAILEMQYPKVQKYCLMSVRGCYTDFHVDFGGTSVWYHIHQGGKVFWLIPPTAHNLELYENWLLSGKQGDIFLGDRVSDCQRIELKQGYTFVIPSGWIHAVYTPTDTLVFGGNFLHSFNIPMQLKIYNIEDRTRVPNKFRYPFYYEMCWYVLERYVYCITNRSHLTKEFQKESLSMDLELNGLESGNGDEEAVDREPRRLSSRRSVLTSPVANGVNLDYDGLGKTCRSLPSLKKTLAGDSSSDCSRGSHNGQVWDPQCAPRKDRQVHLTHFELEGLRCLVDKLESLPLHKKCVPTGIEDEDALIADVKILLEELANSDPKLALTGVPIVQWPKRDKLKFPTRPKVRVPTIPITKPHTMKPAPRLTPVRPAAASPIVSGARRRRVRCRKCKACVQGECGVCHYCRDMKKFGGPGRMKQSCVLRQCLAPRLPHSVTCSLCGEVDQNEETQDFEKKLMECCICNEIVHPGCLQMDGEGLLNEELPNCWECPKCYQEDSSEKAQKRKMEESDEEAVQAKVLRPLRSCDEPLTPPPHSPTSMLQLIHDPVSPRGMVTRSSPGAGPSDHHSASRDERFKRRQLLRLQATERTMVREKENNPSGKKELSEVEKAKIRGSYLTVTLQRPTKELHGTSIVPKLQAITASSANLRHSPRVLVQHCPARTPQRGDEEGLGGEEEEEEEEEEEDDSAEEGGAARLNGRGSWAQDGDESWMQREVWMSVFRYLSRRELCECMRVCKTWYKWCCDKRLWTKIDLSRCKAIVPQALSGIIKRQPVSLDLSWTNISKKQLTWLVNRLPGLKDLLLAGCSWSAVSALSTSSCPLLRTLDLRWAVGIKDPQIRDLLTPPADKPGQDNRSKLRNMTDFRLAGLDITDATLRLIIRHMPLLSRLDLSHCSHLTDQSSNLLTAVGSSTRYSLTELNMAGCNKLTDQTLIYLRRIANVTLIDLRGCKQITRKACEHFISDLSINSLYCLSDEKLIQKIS

[9] = target: T6, Amine oxidase [flavin-containing] A (Homo sapiens, UniProt P21397)
T6 sequence (P21397 whole entry): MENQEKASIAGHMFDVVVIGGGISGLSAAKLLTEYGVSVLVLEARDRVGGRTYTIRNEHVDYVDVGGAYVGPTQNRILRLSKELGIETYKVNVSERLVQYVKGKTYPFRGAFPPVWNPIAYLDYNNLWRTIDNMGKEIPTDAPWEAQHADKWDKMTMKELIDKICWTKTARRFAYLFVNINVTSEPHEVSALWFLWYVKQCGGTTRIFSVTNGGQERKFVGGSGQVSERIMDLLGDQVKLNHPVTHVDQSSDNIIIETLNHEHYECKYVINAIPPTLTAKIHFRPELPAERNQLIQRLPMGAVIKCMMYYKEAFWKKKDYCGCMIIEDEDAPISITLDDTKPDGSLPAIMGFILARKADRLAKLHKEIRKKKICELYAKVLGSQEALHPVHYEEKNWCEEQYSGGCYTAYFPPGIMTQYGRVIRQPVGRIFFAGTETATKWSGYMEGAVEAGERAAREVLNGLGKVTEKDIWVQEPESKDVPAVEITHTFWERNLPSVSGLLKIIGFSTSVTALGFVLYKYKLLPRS

Egl nine homolog 1 [10] = target: T1, Egl nine homolog 1; remark: listed apart in the source
Target sequence in this assay (Q9GZT9 2-426 limits assumed): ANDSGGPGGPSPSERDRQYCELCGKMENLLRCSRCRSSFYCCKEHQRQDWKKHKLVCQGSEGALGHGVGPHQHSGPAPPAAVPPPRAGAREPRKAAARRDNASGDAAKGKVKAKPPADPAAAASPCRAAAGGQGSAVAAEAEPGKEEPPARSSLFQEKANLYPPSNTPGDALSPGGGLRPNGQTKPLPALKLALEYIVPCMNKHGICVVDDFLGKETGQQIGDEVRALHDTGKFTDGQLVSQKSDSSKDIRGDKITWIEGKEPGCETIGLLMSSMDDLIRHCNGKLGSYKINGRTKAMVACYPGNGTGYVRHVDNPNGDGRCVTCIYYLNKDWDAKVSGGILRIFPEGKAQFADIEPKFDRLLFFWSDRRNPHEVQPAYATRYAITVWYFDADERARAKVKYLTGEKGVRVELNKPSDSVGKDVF

Sequence of Hypoxia-inducible factor 1-alpha inhibitor (Q9NWT6 whole entry): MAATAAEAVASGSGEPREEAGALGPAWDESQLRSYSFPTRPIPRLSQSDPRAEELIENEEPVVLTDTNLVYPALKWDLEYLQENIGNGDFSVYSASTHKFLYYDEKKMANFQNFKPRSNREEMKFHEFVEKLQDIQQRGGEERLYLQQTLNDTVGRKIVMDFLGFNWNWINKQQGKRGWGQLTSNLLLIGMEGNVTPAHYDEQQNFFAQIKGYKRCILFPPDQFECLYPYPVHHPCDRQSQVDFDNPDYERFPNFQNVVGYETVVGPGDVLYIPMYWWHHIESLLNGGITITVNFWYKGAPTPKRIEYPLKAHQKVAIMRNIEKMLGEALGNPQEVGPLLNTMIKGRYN
Sequence of Prolyl hydroxylase EGLN3 (Q9H6Z9 whole entry): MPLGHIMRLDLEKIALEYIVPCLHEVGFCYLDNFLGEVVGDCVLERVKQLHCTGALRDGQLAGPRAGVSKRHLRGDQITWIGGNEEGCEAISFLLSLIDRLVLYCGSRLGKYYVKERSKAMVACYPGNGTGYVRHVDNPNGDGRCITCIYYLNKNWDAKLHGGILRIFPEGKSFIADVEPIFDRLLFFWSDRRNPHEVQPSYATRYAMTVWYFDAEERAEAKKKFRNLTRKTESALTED
Sequence of Histone lysine demethylase PHF8 (Q9UPP1 whole entry): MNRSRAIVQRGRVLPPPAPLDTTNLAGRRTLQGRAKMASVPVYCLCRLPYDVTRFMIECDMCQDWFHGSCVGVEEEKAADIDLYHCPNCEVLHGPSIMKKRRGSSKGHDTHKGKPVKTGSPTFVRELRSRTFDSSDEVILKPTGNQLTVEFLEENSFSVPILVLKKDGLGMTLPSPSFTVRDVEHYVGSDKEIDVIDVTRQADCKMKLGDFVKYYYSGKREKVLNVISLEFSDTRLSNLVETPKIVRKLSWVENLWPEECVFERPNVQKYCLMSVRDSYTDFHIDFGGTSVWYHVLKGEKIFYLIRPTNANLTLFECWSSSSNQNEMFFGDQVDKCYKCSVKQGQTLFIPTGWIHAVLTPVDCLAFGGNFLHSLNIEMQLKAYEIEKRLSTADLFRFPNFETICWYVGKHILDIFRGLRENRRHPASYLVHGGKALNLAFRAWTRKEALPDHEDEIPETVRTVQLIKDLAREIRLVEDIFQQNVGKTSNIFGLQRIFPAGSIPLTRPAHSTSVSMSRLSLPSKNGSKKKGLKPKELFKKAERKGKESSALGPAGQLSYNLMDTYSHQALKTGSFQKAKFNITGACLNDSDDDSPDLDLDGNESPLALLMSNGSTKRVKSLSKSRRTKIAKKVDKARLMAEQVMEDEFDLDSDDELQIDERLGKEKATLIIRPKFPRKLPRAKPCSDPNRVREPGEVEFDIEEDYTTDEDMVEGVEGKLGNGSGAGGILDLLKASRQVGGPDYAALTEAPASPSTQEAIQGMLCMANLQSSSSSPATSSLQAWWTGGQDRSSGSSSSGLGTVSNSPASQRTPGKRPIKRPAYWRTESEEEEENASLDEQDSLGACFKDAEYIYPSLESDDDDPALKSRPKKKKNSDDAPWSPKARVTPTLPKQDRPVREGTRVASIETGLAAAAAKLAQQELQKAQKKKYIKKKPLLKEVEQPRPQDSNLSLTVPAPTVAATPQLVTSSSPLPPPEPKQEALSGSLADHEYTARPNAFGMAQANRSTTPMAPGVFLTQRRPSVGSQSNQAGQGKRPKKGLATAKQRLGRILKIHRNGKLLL
Sequence of Prolyl hydroxylase EGLN2 (Q96KS0 whole entry): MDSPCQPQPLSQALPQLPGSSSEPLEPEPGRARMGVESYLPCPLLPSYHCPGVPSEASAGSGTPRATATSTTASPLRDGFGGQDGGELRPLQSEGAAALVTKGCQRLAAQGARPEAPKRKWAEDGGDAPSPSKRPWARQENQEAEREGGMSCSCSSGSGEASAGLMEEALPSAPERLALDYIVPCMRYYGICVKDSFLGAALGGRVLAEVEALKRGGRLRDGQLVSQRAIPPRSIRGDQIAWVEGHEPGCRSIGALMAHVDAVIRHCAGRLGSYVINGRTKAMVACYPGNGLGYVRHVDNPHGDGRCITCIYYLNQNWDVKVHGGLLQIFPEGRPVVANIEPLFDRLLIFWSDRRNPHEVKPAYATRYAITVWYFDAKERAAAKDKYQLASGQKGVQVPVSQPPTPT
Sequence of Lysine-specific demethylase 6B (O15054 whole entry): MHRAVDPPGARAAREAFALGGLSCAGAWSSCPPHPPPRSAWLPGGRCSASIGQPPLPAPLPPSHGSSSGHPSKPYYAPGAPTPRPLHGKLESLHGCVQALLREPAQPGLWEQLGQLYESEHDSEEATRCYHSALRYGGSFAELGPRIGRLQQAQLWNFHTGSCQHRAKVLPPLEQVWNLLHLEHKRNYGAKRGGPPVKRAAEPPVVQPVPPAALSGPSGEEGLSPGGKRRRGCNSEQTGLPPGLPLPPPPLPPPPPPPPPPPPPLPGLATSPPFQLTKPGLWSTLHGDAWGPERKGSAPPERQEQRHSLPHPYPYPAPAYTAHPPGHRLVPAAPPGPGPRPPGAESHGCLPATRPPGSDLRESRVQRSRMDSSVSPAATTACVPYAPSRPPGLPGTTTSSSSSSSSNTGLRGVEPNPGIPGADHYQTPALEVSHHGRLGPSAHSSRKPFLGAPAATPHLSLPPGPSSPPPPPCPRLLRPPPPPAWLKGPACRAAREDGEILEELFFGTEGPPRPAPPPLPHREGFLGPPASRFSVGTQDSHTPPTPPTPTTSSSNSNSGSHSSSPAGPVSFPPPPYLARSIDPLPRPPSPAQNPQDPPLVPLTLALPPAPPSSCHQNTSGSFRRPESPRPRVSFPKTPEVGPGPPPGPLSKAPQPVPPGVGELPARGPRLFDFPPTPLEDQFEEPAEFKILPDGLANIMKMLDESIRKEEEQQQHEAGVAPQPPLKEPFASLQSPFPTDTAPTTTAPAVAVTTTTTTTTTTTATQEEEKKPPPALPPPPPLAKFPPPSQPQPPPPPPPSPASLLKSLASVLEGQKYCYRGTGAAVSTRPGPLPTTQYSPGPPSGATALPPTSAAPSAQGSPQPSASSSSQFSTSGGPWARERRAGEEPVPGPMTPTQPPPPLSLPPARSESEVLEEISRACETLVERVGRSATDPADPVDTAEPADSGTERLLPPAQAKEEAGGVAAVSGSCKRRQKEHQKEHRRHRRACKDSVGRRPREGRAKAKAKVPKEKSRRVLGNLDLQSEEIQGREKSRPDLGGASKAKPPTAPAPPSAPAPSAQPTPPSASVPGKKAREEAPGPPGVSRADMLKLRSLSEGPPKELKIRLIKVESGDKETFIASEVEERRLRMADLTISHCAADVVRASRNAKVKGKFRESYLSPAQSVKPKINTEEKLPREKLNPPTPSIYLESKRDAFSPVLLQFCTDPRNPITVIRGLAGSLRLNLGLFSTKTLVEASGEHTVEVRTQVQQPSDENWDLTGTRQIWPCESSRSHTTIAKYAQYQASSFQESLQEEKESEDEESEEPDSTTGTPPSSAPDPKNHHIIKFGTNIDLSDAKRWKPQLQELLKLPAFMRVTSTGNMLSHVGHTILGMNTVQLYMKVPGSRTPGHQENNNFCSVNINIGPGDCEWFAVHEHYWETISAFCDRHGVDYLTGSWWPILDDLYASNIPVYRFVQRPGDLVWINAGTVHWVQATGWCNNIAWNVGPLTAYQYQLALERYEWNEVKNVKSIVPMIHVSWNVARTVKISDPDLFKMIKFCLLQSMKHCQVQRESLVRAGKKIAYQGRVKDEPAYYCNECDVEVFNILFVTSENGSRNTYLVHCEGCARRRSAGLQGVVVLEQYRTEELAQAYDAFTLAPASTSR

Structure (SMILES): NC1CC1c1ccc(NC(=O)C(Cc2ccccc2)NC(=O)OCc2ccccc2)cc1 (configuration not stated)
Ki [3]: > 133 µM

Structure (SMILES): O=C(O)/C=C/C(=O)N(O)CCCCNCc1ccc(COC(=O)Nc2cccc3ccccc23)cc1
IC50 [4]: 43 µM | IC50 [5]: 10 µM | IC50 (Prolyl hydroxylase EGLN3): 31 µM | IC50 [6]: 4.3 µM | IC50 [7]: 3.4 µM | IC50 (Egl nine homolog 1 [1]): 83 µM | IC50 [2]: 22 µM | IC50 (Prolyl hydroxylase EGLN2): 54 µM

Structure (SMILES): O=C(O)CC[C@@H](O)C(=O)O
IC50 [8]: 106 µM

Structure (SMILES): S=C(SSC(=S)N1CCCC1)N1CCCC1 [BIS(PYRROLIDINYLTHIOCARBONYL)DISULFIDE]
IC50 [6]: 3.3 µM

Structure (SMILES): NC1CC1c1cc(F)cc(F)c1OCc1ccccc1 (configuration not stated)
Ki [9]: 110 µM | Ki [3]: 17 µM

Structure (SMILES): NC1CC1c1cccc(OCC[C@H](NC(=O)c2ccccc2)C(=O)NCc2ccccc2)c1 (some centres not stated)
Ki [9]: 230 µM | Ki [3]: 740 µM

Structure (SMILES): N[C@@H]1C[C@H]1c1ccc(OCC[C@H](NC(=O)c2ccccc2)C(=O)NCc2ccccc2)cc1
Ki [9]: 250 µM | Ki [3]: 1700 µM

Structure (SMILES): O=C(O)CC[C@H](O)C(=O)O
IC50 [8]: 48 µM

Further lines, results first:

IC50 (Egl nine homolog 1 [1]): 14 µM | IC50 [2]: 21 µM
Structure (SMILES): O=C(O)c1ccnc2c(O)cccc12

IC50 (Egl nine homolog 1 [1]): > 400 µM
Structure (SMILES): O=C(O)c1ccnc(C(=O)O)c1Nc1ccccc1F

inhibition (Egl nine homolog 1 [10]): inactive
Structure (SMILES): O=C(O)C(=O)N[C@H](Cc1ccc(OS(=O)(=O)c2ccc(Br)cc2)cc1)C(=O)O
